Assay results published in PMC8588467, “Rational Design 2-Hydroxypropylphosphonium Salts as Cancer Cell Mitochondria-Targeted Vectors: Synthesis, Structure, and Biological Properties” (Molecules, 2021).

Assays:
human cancer cell lines = test: MTT cytotoxicity, summary statements over several cell lines; format: cell-based; details: Homo sapiens, HuTu80; lines other than HuTu 80 and PC3; read-out: IC50 concentration values against other human cancer lines
[1] = system: PC3 (human prostate adenocarcinoma); test: MTT cytotoxicity, PC3
[2] = system: T98G glioblastoma cell line; test: MTT cytotoxicity, T98G; format: cell-based, human
[3] = system: HuTu 80 (human duodenal adenocarcinoma); test: MTT cytotoxicity, HuTu 80; format: cell-based
HuTu-80 cells [4] = test: Induction of apoptosis, annexin V/propidium iodide flow cytometry; format: cell-based, human; details: IC50/2, 48-h incubation
Procedure: Apoptosis is one of the most significant mechanisms used for screening new anti-cancer agents. The apoptosis-inducing effect was carried out on lead compounds 3a, b, k, j and 4c showing high selectivity against HuTu-80 cells. The studies were carried out by flow cytometry at concentrations IC50/2 and IC50 (Figure 4). […] The percentage of apoptotic cells in early and late phases was slightly changed with increase compound concentration up to IC50.
HuTu 80 cells at 1 × 10^6 cells/well in a final volume of 2 mL were seeded into six-well plates. After 48 h of incubation, various concentrations of compounds 3a,b and 3k were added to wells.
The cells were harvested at 2000 rpm for 5 min and, then, washed twice with ice-cold PBS, followed by resuspension in binding buffer. Next, the samples were incubated with 5 μL of annexin V-Alexa Fluor 647 (Sigma–Aldrich, St. Louis, MO, USA) and 5 μL of propidium iodide for 15 min at room temperature in the dark. Finally, the cells were analyzed by flow cytometry (Guava easy Cyte, MERCK, Rahway, NJ, USA) within 1 h. The experiments were repeated three times.

[5] = system: MCF-7 (human breast adenocarcinoma); test: MTT cytotoxicity, MCF-7; format: cell-based
[6] = system: WI38 (diploid human embryo lung); test: MTT cytotoxicity, normal cells WI38; format: cell-based; details: MTT; mean ± SD, triplicate; read-out: WI38 IC50 (normal cell line)
HuTu-80 cells [7] = test: Mitochondrial membrane potential, JC-10 flow cytometry; format: cell-based, human; details: for % cells with J-aggregate (red, high membrane potential) / % cells with J-monomer (green, decreased membrane potential): JC-10
From the text: Apoptosis induction by 3a, b, k, j and 4c through the mitochondrial pathway and HuTu-80 cell line was studied by flow cytometry using the fluorescent dye JC-10 from the Mitochondria Membrane Potential Kit. JC-10 accumulated in the mitochondrial matrix and formed aggregates (J-aggregate) with red fluorescence in normal cells with a high mitochondrial membrane potential. The membrane potential decreased in apoptotic cells. JC-10 started to diffuse out from the mitochondria and converts to the monomeric form (J-monomer) and emits green fluorescence. This is recorded with a flow cytometer. […] The process became more pronounced with an increase of 3a, b, 3k, j and 4c concentrations up to IC50 (Figure 5 and Figure 6).
Cells were harvested at 2000 rpm for 5 min and then washed twice with ice-cold PBS, followed by resuspension in JC-10 (10 µg/mL) and incubation at 37 °C for 10 min. After the cells were rinsed three times and suspended in PBS, the JC-10 fluorescence was observed by flow cytometry (Guava easy Cyte, MERCK, NJ, USA).

[8] = system: M-HeLa (human cervix epitheloid carcinoma); test: MTT cytotoxicity, M-HeLa; format: cell-based
[9] = system: A549 (human lung carcinoma); test: MTT cytotoxicity, A549; format: cell-based
HuTu-80 cells [10] = test: Intracellular ROS production, CellROX Deep Red flow cytometry; format: cell-based, human; details: for CellROX Deep Red fluorescence intensity (ROS production): control 600
From the text: Increasing the production of reactive oxygen species (ROS) by compounds characterizes the mitochondrial apoptotic pathway. Mitochondria are a potential source and target of ROS. ROS lead to disruption of mitochondrial functions and, as a consequence, to irreversible cell damage. In this regard, the effect of test compounds in HuTu-80 cells on ROS production, using flow cytometry analysis and CellROX® Deep Red flow cytometry kit was investigated. Data presented in Figure 7 show a significant increase in CellROX® Deep Red fluorescence intensity. This indicates an increase in ROS production in the presence of the tested compounds.
ROS generation was investigated using flow cytometry assay and CellROX® Deep Red flow cytometry kit. For this HuTu 80 cells were harvested at 2000 rpm for 5 min and then washed twice with ice-cold PBS, followed by resuspension in 0.1 mL of medium without FBS, to which was added 0.2 μL of Cell ROX® Deep Red and incubated at 37 °C for 30 min After three times washing the cells and suspending them in PBS, the production of ROS in the cells was immediately monitored using flow cytometer Guava easy Cyte, MERCK, NJ, USA).

[11] = In vitro rhodamine B release, dialysis bag diffusion method; format: physicochemical; details: aqueous solution without nanoparticles; phosphate buffer 0.025 M, pH 7.4, 37 °C
Procedure: The monitoring of rhodamine B release from liposomes was performed using the dialysis bag diffusion method. Dialysis bags retain liposomes and allow the released rhodamine B to diffuse into the medium. The bags were soaked in Milli-Q water for 12 h before use. Then, 0.4 mL of liposomes were poured into the dialysis bag. The two bag ends were sealed with clamps. The bags were then placed in a vessel containing 100 mL of 0.025 M sodium phosphate buffer pH 7.4, the receiving phase. The vessel was placed in a thermostatic shaker (New Brunswick, NJ, USA) at 37 °C, under a stirring rate of 150 rpm. At predetermined time intervals, 0.5 mL of samples were withdrawn, and their absorbance at 554 nm was measured using Perkin Elmer λ35 (Perkin Elmer Instruments, Norwalk, CT, USA). All samples were analyzed in triplicate. The extinction coefficient of rhodamine B is 106,089 M^−1 cm^−1 at pH = 7.4.

[12] = IC50 normal cells (WI38) / IC50 cancer cells, ns = no selectivity

Q: Which results are given for `C=CCOCC(O)C[P+](c1ccccc1)(c1ccccc1)c1ccccc1.[I-]` (centres unmarked) [4c, (3-(Allyloxy)-2-hydroxypropyl)triphenylphosphonium iodide]?
A: IC50 (human cancer cell lines): 1100 to 3700 nM; SI PC3 [1, 12]: 5.3; IC50 ([1]; read-out: IC50 PC3, MTT, mean ± SD, triplicate): 700 ± 60 nM; cytotoxic effect against the PC3 line relative to doxorubicin ([1]; words): two times higher than doxorubicin; SI T98G [2, 12]: 1.8; IC50 ([2]; MTT, mean ± SD, triplicate): 2000 ± 100 nM; SI HuTu 80 [3, 12]: 12.3; IC50 ([3]; MTT, mean ± SD, triplicate): 300 ± 20 nM; anti-cancer activity against the HuTu 80 cell line relative to doxorubicin ([3]; words): comparable to doxorubicin activity; apoptosis induction (HuTu-80 cells [4]): actively induce apoptosis; SI MCF-7 [5, 12]: 1.4; IC50 ([5]; MTT, mean ± SD, triplicate): 2700 ± 200 nM; IC50 [6]: 3700 ± 300 nM; % cells with J-aggregate (red, high membrane potential) (HuTu-80 cells [7]; IC50, 48 h): 51.1%; % cells with J-monomer (green, decreased membrane potential) (HuTu-80 cells [7]; IC50, 48 h): 46.9%; % cells with J-aggregate (red, high membrane potential) (HuTu-80 cells [7]; IC50/2, 48 h): 88.5%; % cells with J-monomer (green, decreased membrane potential) (HuTu-80 cells [7]; IC50/2, 48 h): 11.3%; effect on mitochondrial membrane potential (HuTu-80 cells [7]; more pronounced with increase of concentration up to IC50): decrease the mitochondrial membrane potential; SI M-HeLa [8, 12]: 3.4; IC50 ([8]; MTT, mean ± SD, triplicate): 1100 ± 90 nM; SI A549 [9, 12]: 1.4; IC50 ([9]; MTT, mean ± SD, triplicate): 2600 ± 200 nM; CellROX Deep Red fluorescence intensity (ROS production) (HuTu-80 cells [10]; IC50, 48 h): 4300; CellROX Deep Red fluorescence intensity (ROS production) (HuTu-80 cells [10]; IC50/2, 48 h): 3200; ROS generation (HuTu-80 cells [10]; compared to 3a and 3b and control (untreated cells)): most active to generate ROS

Q: For `CCN(CC)c1ccc2c(-c3ccccc3C(=O)O)c3ccc(=[N+](CC)CC)cc-3oc2c1` [Rhodamine B], which “time of release of 50% Rhodamine B” value [11] is on record?
A: ≤ 20 min
